Data reported in PubChem BioAssay (NCI).
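Where inhibition never reached the appropriate level, the endpoint shown equals the highest concentration tested. Otherwise, values were interpolated linearly from a five-concentration, 48-hour dose response in 96-well plates. At the GI50, growth is halved. At the TGI there is no net growth.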

Legend:
Assay in all cases: growth of human tumour cells (NCI), 48 h
[1] = test system: HCT-116 colon
[2] = test system: HT29 colon
[3] = test system: RPMI-8226 leukemia
[4] = test system: COLO 205 colon
[5] = test system: SF-295 CNS
[6] = test system: IGROV1 ovarian
[7] = test system: NCI/ADR-RES ovarian
[8] = test system: MDA-MB-435
[9] = test system: HOP-92 NSCLC
[10] = test system: A549 NSCLC
[11] = test system: CCRF-CEM leukemia
[12] = test system: SK-MEL-2 melanoma
[13] = test system: HCC-2998 colon
[14] = test system: NCI-H226 lung
[15] = test system: HCT-15 colon
[16] = test system: SR leukemia
[17] = test system: T-47D breast
[18] = test system: K-562 leukemia
[19] = test system: LOX IMVI melanoma
[20] = test system: MDA-MB-231 breast
[21] = test system: KM12 colon
[22] = test system: ACHN renal
[23] = test system: NCI-H23 lung
[24] = test system: SK-OV-3 ovarian
[25] = test system: UACC-62 melanoma
[26] = test system: OVCAR-8 ovarian
[27] = test system: PC-3 prostate
[28] = test system: BT-549 breast
[29] = test system: M14 melanoma
[30] = test system: NCI-H522 lung
[31] = test system: MOLT-4 leukemia
[32] = test system: HL-60(TB) leukemia
[33] = test system: RXF 393 renal
[34] = test system: U251 CNS
[35] = test system: 786-0 renal
[36] = test system: HOP-62 NSCLC
[37] = test system: EKVX NSCLC
[38] = test system: SF-268 CNS
[39] = test system: UO-31 renal
[40] = test system: SK-MEL-5 melanoma
[41] = test system: SNB-75 CNS
[42] = test system: NCI-H460 lung
[43] = test system: CAKI-1 renal

COc1ccc(/C=C2\CN(C(=O)C(Cl)Cl)C/C(=C\c3ccc(OC)c(OC)c3)C2=O)cc1OC
GI50 [1]: 30.6 nM | TGI [1]: 103 nM | GI50 [2]: 78.1 nM | GI50 [3]: 30.6 nM | TGI [3]: 155 nM | GI50 [4]: 307 nM | TGI [4]: 1600 nM | GI50 [5]: 243 nM | TGI [5]: 803 nM | GI50 [6]: 321 nM | TGI [6]: 1750 nM | GI50 [7]: 86.4 nM | TGI [7]: > 67500 nM | GI50 [8]: 52.8 nM | TGI [8]: 265 nM | GI50 [9]: 532 nM | TGI [9]: 3790 nM | GI50 [10]: 1280 nM | TGI [10]: > 100000 nM | GI50 [11]: 34.1 nM | TGI [11]: > 100000 nM | GI50 [12]: 1850 nM | TGI [12]: > 100000 nM | GI50 [13]: 390 nM | TGI [13]: 1440 nM | GI50 [14]: 430 nM | TGI [14]: 1720 nM | GI50 [15]: 69 nM | TGI [15]: 446 nM | GI50 [16]: 35.2 nM | TGI [16]: > 100000 nM | GI50 [17]: 361 nM | TGI [17]: > 100000 nM | GI50 [18]: 36.6 nM | TGI [18]: > 100000 nM | GI50 [19]: 28.2 nM | TGI [19]: 96.5 nM | GI50 [20]: 344 nM | TGI [20]: 1390 nM | GI50 [21]: 98.7 nM | TGI [21]: 332 nM | GI50 [22]: 165 nM | TGI [22]: 381 nM | GI50 [23]: 410 nM | TGI [23]: 1790 nM | GI50 [24]: 2460 nM | TGI [24]: > 100000 nM | GI50 [25]: 185 nM | TGI [25]: 549 nM | GI50 [26]: 49.5 nM | TGI [26]: > 100000 nM | GI50 [27]: 301 nM | TGI [27]: 2400 nM | GI50 [28]: 535 nM | TGI [28]: 2980 nM | GI50 [29]: 92.6 nM | TGI [29]: 356 nM | GI50 [30]: 231 nM | TGI [30]: 697 nM | GI50 [31]: 135 nM | TGI [31]: > 100000 nM | GI50 [32]: 221 nM | TGI [32]: 711 nM | GI50 [33]: 209 nM | TGI [33]: 492 nM | GI50 [34]: 40.5 nM | TGI [34]: 1120 nM | GI50 [35]: 326 nM | TGI [35]: 1190 nM | GI50 [36]: 883 nM | GI50 [37]: 366 nM | TGI [37]: 1870 nM | GI50 [38]: 2420 nM | TGI [38]: > 100000 nM | GI50 [39]: 184 nM | TGI [39]: 423 nM | GI50 [40]: 199 nM | TGI [40]: 540 nM | GI50 [41]: 651 nM | TGI [41]: > 100000 nM | GI50 [42]: 371 nM | TGI [42]: 1720 nM | GI50 [43]: 368 nM | TGI [43]: 1980 nM
